Columns and labels:
Env-elicited syncytia = type: cell-based; details: SN50 20 µM, cyclic pifithrin-α 10 µM, added at the beginning of co-culture; Fig. 7D
Method: HeLa/U937 cell co-cultures were performed at different ratios (6). U937 or Jurkat cells were cultured with recombinant gp120 protein (500 ng/ml).

U937 cells = test: Induction of Puma in U937 cells co-cultured with HeLa Env cells; type: cell-based; design: dose or concentration left out as unconfirmed; details: 36 hours, Fig. 8A
Method: Figure 8A. Induction of Puma in U937 cells co-cultured with HeLa Env cells. U937 cells were mixed at different ratios with HeLa Env cells, just before the preparation of cell lysates for immunoblot detection of Puma (Control) or coculture for 36 hours, in the absence or presence of the p53 inhibitor cyclic pifithrin α […]. The percentage of dead U937 cells was determined by trypan blue exclusion.
(§1) HeLa cells stably transfected with the Env gene of HIV-1 LAI (HeLa Env) and HeLa cells transfected with CD4 (HeLa CD4) were cocultured at a 1:1 ratio (6), in DMEM medium supplemented with 10 % FCS, L-glutamine, in the absence or presence of roscovitin (1 µM), rapamycin (1 µM, Sigma), cyclic pifithrin-α (10 µM), MG132 (5 µM, Calbiochem), the NF-κB-inhibitory peptide SN50, or its negative control SN50M (20 µM, Biomol). HeLa/U937 cell co-cultures were performed at different ratios (6). U937 or Jurkat cells were cultured with recombinant gp120 protein (500 ng/ml).
Protein samples were prepared from HeLa Env and HeLa CD4 single cells mixed at a 1:1 ratio in lysis buffer (single cells control) or from HeLa Env/CD4 syncytia. Proteins samples from HeLa Env and U937 mixed at different ratios were also prepared and subjected to immunoblot analysis. […]

Jurkat cells = test: Apoptosis and Puma induction by recombinant gp120 protein in Jurkat cells; type: cell-based; details: four days, gp120 500 ng/ml, cyclic pifithrin-α 10 µM, Fig. 8E
Method: Figure 8D. Induction of Puma by recombinant gp120 protein in Jurkat cells (as in figure 8B).
Figure 8E. Effect of cyclic pifithrin-alpha. Jurkat cells were treated for four days with gp120 protein (500 ng/ml) and or cyclic pifithrin-α (10 µM), followed by determination of Puma expression.
as §1

Env-induced syncytia = details: cited from earlier work

## Cc1ccc(-c2cn3c4c(sc3n2)CCCC4)cc1 [pifithrin-α, cyclic pifithrin-α]
Env-elicited syncytia
  activation of Bax and Bak: inhibited
U937 cells
  upregulation of Puma: not inhibited
Jurkat cells
  gp120-induced apoptosis and Puma expression: strongly inhibited
Env-induced syncytia; reference (5)
  syncytium-dependent cell death: blocked
Env-induced syncytia; references (5, 7)
  Env-induced upregulation of Bax: prevents
  syncytial cell death: retards

— EP1542016A1, “PUMA, phosphorylated p53 and p38 map kinase as markers for HIV-1-induced apoptosis in circulating T cells of infected patient” (Institut Gustave Roussy, priority 2003, dated 2005)
